This is an account of results in US6664086B2, “cDNA, genomic, and predicted protein sequences of learning-induced kinases” (priority 1998, dated 2003).

The structures appear in SMILES notation. “Also recorded” adds a separate entry of the source. Starred links: 1 amine or outer side, 2 acyl side, 3 side chain; linkers in the order of their positions; H or OH if unused. Positions of bridges follow the written chain, without caps; N, C: chain ends. Non-standard residues stand in square brackets, D forms with d. Residues, ends and D or L forms follow the SMILES beside them. Chains are numbered I, II in the order given. Actinocin(9to1) = Cc1c2oc3c(C)ccc(C(=O)[*:1])c3nc-2c(C(=O)[*:2])c(N)c1=O; NMeV = CN[C@H](C(=O)O)C(C)C; Sar = CNCC(=O)O

The test system of data set [1] is eyeblink/nictitating membrane conditioned responses (CRs); infusion into dorsal anterior IN. The data set is described as follows: Eyeblink conditioning after drug infusion into the interpositus nucleus (IN). It is filed as in vivo, New Zealand White male rabbits (Oryctolagus cuniculus). The procedure:
Rabbits underwent eyeblink training 30 min. after infusion of 1 ng of actinomycin D (ActD) or artificial cerebrospinal fluid (ACSF) into the dorsal anterior IN ipsilateral to the trained eye. Rabbits were trained with 10 paired tone-air trials per day to insure that ActD could act during learning (see Methods). […] Most animals in the experimental group reached criterion after 5 days of additional training without drug infusion.
New Zealand White male rabbits (Oryctolagus cuniculus), weighing between 2 and 3 kg were individually housed at the University of Southern California Hedco Neuroscience Building vivariunm with a 12-hr light and dark cycle. The experiment was conducted during the light phase of the cycle. Rabbits had ad lib access to food and water.
(§1) Stainless steel guide cannulas (25 ga) were implanted in the head of the animals with the tip fixed at 1.5 to 2.0 mm dorsal to the IN ipsilateral to the eye to be trained (left) (stereotaxic coordinates from lambda: 0.8 mm anterior, 5.2 mm lateral, and 14.0 mm ventral). Each guide cannula was filled with an inner stainless steel stylet designed to keep the guide cannula patent. Animals were given 5 days to recover from surgery. At infusion the stylet was removed and an inner cannula (31 ga) was inserted to the target locus. Delivery of fluids through the inner cannula was accomplished by a 10 μl Hamilton syringe driven by a syringe pump. Fluids were delivered to the target area at a rate of 0.38 μl per min for 2.6 min. For the experimental group, 1 ng of ActD (in 1 μl of vehicle) was infused daily 30 min prior to the start of each training session for 5 days (n=7). […] The animals were given 2 days rest and then trained for 5 more days without drug infusion. At training day 11, the experimental group was treated with 1 μg muscimol which is known to reversibly inactivate the IN (Krupa and Thompson, 1997). For the control group, 1 μl of ACSF (vehicle) was infused into the IN for 5 days (n=5). At day 6, control animals were infused with 1 ng of ActD 30 min prior to training. On training day 7, 1 μg of muscimol was infused.
For the infusion experiments, all animals were subjected to eye-blink conditioning under the delay paradigm. The rabbits were allowed one day (1 hour) of habituation to the restrainer and the behavioral recording chamber. On the following day, paired tone-airpuff training began. For each day, the training session began 30 min post drug infusion and we gave only 10 trials/day (instead of the standard 100 trials per day, see below) in order to maximize the possibility that ActD was acting on the learning process before the long term memory had been well established. The tone CS was a 350 ms, 1000 Hz., 85 dB tone and the airpuff US was a 100 ms puff of air (3 psi at the source) delivered to the rabbit's cornea, the CS and US coterminating. The mean intertrial interval (ITI) was 60±10 sec. Nictitating membrane (NNI) conditioned responses (CRs) were measured using a minitorque potentiometer attached to a small loop of monofilament nylon thread on the NM of the rabbit's left, eye. Output of the potentiometer was digitized and recorded by computer. A conditioned response was defined as any NM extension response greater than 0.5 mm that occurred after tone onset but before airpuff onset. The intra- and intertrial timing, stimulus presentations, data collection and analysis were performed by a PC with a program written in Forth and machine language (Lavond and Steinmetz, 1989b).

The test system of a further data set is IN tissue. Nature of the data set: Pilot dose studies of ActD infusion into the IN (tissue damage). In kind it is in vivo, New Zealand White male rabbits (Oryctolagus cuniculus). To be noted: e.g. 5 ng, infused into IN.
Description: as §1, with “For the experimental group, 1 ng of ActD (in 1 μl of vehicle) was infused daily 30 min prior to the start of each training session for 5 days (n=7).” left out

In another data set the test system is eyeblink conditioning. To be noted: infusion into the IN, rabbit (Bracha and Bloedel, 1996); cited from earlier work.

Regarding `NCc1cc(=O)[nH]o1` [muscimol], in data set [1] (1 μg infused into IN at day 11, experimental group after retraining), the “Expression of CRs, experimental group day 11” value was “completely abolished the expression of CRs”. The “Expression of CRs, control group day 7” value in data set [1] (1 μg infused into IN on day 7, conditioned control animals) is “completely abolished the CRs”.
As for `Cc1c2oc3c(C)ccc(C(=O)N[C@@H]4C(=O)N[C@H](C(C)C)C(=O)N5CCC[C@H]5C(=O)N(C)CC(=O)N(C)[C@@H](C(C)C)C(=O)O[C@@H]4C)c3nc-2c(C(=O)N[C@@H]2C(=O)N[C@H](C(C)C)C(=O)N3CCC[C@H]3C(=O)N(C)CC(=O)N(C)[C@@H](C(C)C)C(=O)O[C@@H]2C)c(N)c1=O` [ActD, actinomycin D] (I: T[dV]P[Sar][NMeV] / II: T[dV]P[Sar][NMeV]; ester I:1-I:C, II:1-II:C; linker I:N-II:N via Actinocin(9to1)), the “Acquisition of conditioned responses (CRs) during 5 days of training” value in data set [1] (1 ng infused into IN daily 30 min before training, 5 days, 10 paired CS-US trials per day, n=7, vs ACSF) is “low levels of CRs; also recorded: completely prevents learning; also recorded: inhibited eyeblink conditioning”. In data set [1] (1 ng infused into IN on day 6 in control animals conditioned under ACSF (n=5)), the “Expression of already acquired CRs” value was “did not prevent expression of acquired CRs; also recorded: no effect on the performance of CRs”. Besides, the “CRs on training without drug after ActD treatment (reversibility)” value in data set [1] (experimental group, 2 days rest, then training days 6-10 without drug infusion) is reported as “gradual increase of CRs”. In addition, the “Tissue damage at higher doses” value in the data set with IN tissue is “caused permanent damage to the tissue”.
For the molecule `COc1ccc(C[C@H]2NC[C@H](O)[C@H]2OC(C)=O)cc1` [anisomycin], the “Effect on eyeblink conditioning” value in the data set with eyeblink conditioning is “interfered with conditioning”.
